Source: patent publication US5436254A, “Carbostyril derivatives” (Otsuka Pharmaceutical Company, Ltd., priority 1989, dated 1995)

Each compound was assayed against V1 receptor (Rattus norvegicus, UniProt P30560) (assay: biochemical). Conditions: not given.
Assay type: binding

V1 receptor, sequence (P30560 whole entry): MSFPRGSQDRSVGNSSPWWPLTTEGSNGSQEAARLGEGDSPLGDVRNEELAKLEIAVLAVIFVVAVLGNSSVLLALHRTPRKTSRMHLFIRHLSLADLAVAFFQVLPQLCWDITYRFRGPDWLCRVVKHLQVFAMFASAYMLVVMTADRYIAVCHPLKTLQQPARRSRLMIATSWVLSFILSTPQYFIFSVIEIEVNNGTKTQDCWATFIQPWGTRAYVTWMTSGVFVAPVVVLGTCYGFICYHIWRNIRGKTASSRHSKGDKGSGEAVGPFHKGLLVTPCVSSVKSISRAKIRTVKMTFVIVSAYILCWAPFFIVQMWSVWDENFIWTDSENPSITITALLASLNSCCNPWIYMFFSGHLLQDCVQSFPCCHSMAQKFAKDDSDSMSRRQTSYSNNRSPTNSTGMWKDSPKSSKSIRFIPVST

`CN(C)CCN(CCCCCOc1ccc(C(=O)N2CCC(N3C(=O)CCc4ccccc43)CC2)cc1)Cc1ccccc1` [Example 248, 1-{1-(4-[5-(N-(2-Dimethylaminoethyl)-N-benzylamino)pentyloxy]benzoyl)-4-piperidinyl}-3,4-dihydrocarbostyril] and `CN(CCc1ccccc1)CC(O)CCCCOc1ccc(C(=O)N2CCC(N3C(=O)CCc4ccccc43)CC2)cc1` (stereo not shown) [Example 203, 1-{1-[4-(5-Hydroxy-6-[N-(2-phenylethyl)-N-methylamino]hexyloxy)benzoyl]-4-piperidinyl)-3,4-dihydrocarbostyril] are within 1.5-fold of each other in IC50: 34 nM for the first, 49 nM for the second.

`CCN(CC(O)CCCCOc1ccc(C(=O)N2CCC(N3C(=O)CCc4ccccc43)CC2)cc1)CC1CCCCO1` (stereo not shown) [Example 218, 1-{1-[4-(5-Hydroxy-6-[N-ethyl-N-(2-tetrahydropyranylmethyl)amino]hexyloxy)benzoyl]-4-piperidinyl}-3,4-dihydrocarbostyril] and `O=C(c1ccc(OCCCCCCC(O)CN2CCCC2)cc1)N1CCC(N2C(=O)CCc3ccccc32)CC1` (stereo not shown) [Example 206, 1-(1-[4-(7-Hydroxy-8-(1-pyrrolidinyl)octyloxy)benzoyl]-4-piperidinyl)-3,4-dihydrocarbostyril] are within 1.5-fold of each other in IC50: 44 nM for the first, 30 nM for the second.

Going from `COc1cc(SC)ccc1C(=O)N1CCC(N2C(=O)CCc3ccc(F)cc32)CC1` [Example 80, 7-Fluoro-1-[1-(2-methoxy-4-methylthiobenzoyl)-4-piperidinyl]-3,4-dihydrocarbostyril] to `CCOc1ccc(C(=O)N2CCC(N3C(=O)CCc4cc(F)c(F)cc43)CC2)c(OC)c1` [Example 120, 6,7-Difluoro-1-[1-(2-methoxy-4-ethoxybenzoyl)-4-piperidinyl]-3,4-dihydrocarbostyril], the IC50 rises from 80 nM to 200 nM (2.5-fold).

`O=C(c1ccc(OC2C=CCCC2)cc1)N1CCC(N2C(=O)CCc3ccccc32)CC1` (stereo not shown) [Example 98, 1-{1-[4-(2-Cyclohexenyloxy)benzoyl]-4-piperidinyl}-3,4-dihydrocarbostyril] and `COCc1ccc(C(=O)N2CCC(N3C(=O)CCc4ccccc43)CC2)cc1` [Example 109, 1-[1-(4-Methoxymethylbenzoyl)-4-piperidinyl]-3,4-dihydrocarbostyril] are within 1.5-fold of each other in IC50: 770 nM for the first, 750 nM for the second.

Going from `O=C(c1ccc(OCCCCC[S+]([O-])c2ncccn2)cc1)N1CCC(N2C(=O)CCc3ccccc32)CC1` (stereo not shown) [Example 280, 1-{1-(4-[5-(2-Pyrimidylsufinyl)pentyloxy]benzoyl)-4-piperidinyl}-3,4-dihydrocarbostyril] to `O=C(c1ccc(OCCCCCN2CCN(c3ncccn3)CC2)cc1)N1CCC(N2C(=O)CCc3ccccc32)CC1` [Example 233, 1-{1-(4-[5-(4-[2-Pyrimidyl]-1-piperazinyl)pentyloxy]benzoyl)-4-piperidinyl}-3,4-dihydrocarbostyril], the IC50 rises from 87 nM to 210 nM (2.4-fold). The first is the more potent here.

`COc1cc(N(C)C)ccc1C(=O)N1CCC(N2C(=O)CCc3ccccc32)CC1` [Example 49, 1-[1-(2-Methoxy-4-dimethylaminobenzoyl)-4-piperidinyl]-3,4-dihydrocarbostyril] and `COc1ccc(C(=O)N2CCC(N3C(=O)CCc4ccccc43)CC2)c(N(C)C)c1` [Example 55, 1-[1-(2-Dimethylamino-4-methoxybenzoyl)-4-piperidinyl]-3,4-dihydrocarbostyril] are the same in IC50: 200 nM for the first, 200 nM for the second.

Compared with `O=C(NCCCCCOc1ccc(C(=O)N2CCC(N3C(=O)CCc4ccccc43)CC2)cc1)C1CCC(O)C(O)C1` (stereo not shown) [Example 260], `O=C(CN1CCCC1)NCCCCCOc1ccc(C(=O)N2CCC(N3C(=O)CCc4ccccc43)CC2)cc1` [Example 252, 1-{1-(4-[5-(2-(1-Pyrrolidinyl)acetylamino)pentyloxy]benzoyl)-4-piperidinyl}-3,4-dihydrocarbostyril] is 1.7-fold lower in IC50: 150 nM for the first, 86 nM for the second. The second is the more potent here.

Compared with `COCCCOc1cc(OC)ccc1C(=O)N1CCC(N2C(=O)CCc3ccccc32)CC1` [Example 66, 1-{1-[2-(3-Methoxypropoxy)-4-methoxybenzoyl]-piperidinyl}-3,4-dihydrocarbostyril], `CCOc1cc(OC)ccc1C(=O)N1CCC(N2C(=O)CCc3ccccc32)CC1` [Example 59, 1-[1-(2-Ethoxy-4-methoxybenzoyl)-4-piperidinyl]-3,4-dihydrocarbostyril] is 2-fold lower in IC50: 410 nM for the first, 200 nM for the second. The second is the more potent here.

Going from `O=C(c1ccc(OCCCCCSc2ccncc2)cc1)N1CCC(N2C(=O)CCc3ccccc32)CC1` [Example 283, 1-{1-(4-[5-(4-Pyridylthio)pentyloxy]benzoyl)-4-piperidinyl}-3,4-dihydrocarbostyril] to `O=C(c1ccc(OCCCCC(O)CNCc2ccccc2)cc1)N1CCC(N2C(=O)CCc3ccccc32)CC1` (stereo not shown) [Example 170, 1-{1-[4-(5-Hydroxy-6-benzylaminohexyloxy)benzoyl]-4-piperidinyl}-3,4-dihydrocarbostyril], the IC50 falls from 610 nM to 39 nM (16-fold).

Going from `COc1ccc(C(=O)N2CCC(N3C(=O)CCc4ccccc43)CC2)cc1[N+](=O)[O-]` [Example 119, 1-[1-(3-Nitro-4-methoxybenzoyl)-4-piperidinyl]-3,4-dihydrocarbostyril] to `COc1ccc(C(=O)N2CCC(N3C(=O)CCc4ccccc43)CC2)c(OC(C)=O)c1` [Example 61, 1-[1-(2-Acetoxy-4-methoxybenzoyl)-4-piperidinyl]-3,4-dihydrocarbostyril], the IC50 falls from 1400 nM to 300 nM (4.7-fold). The second is the more potent here.

First: CC(C)[C@@H](N)C(=O)NCCCOc1ccc(C(=O)N2CCC(N3C(=O)CCc4ccccc43)CC2)cc1 [Example 225, 1-[1-{4-(3-(R)-Valylaminopropoxy]benzoyl]-4-piperidinyl]-3,4-dihydrocarbostyril]
Second: CNC(=O)CCCOc1ccc(C(=O)N2CCC(N3C(=O)CCc4ccccc43)CC2)cc1 [Example 121, 1-{1-[4-(3-Methylaminocarbonylpropoxy)benzoyl]-4-piperidinyl}-3,4-dihydrocarbostyril]
The IC50 of the first is 4.6-fold lower: 99 nM for the first, 460 nM for the second. The first is the more potent here.

`NC(=O)CNC(=O)CCCOc1ccc(C(=O)N2CCC(N3C(=O)CCc4ccccc43)CC2)cc1` [Example 9, 1-{1-[4-(3-Carbamoylmethylaminocarbonylpropoxy)benzoyl]-4-piperidinyl}-3,4-dihydrocarbostyril] and `CC(=O)NCC(=O)NCCCCOc1ccc(C(=O)N2CCC(N3C(=O)CCc4ccccc43)CC2)cc1` [Example 25] are within 1.5-fold of each other in IC50: 350 nM for the first, 240 nM for the second.

First: O=C(c1ccc(OCCCCN2CCNCC2)cc1)N1CCC(N2C(=O)CCc3ccccc32)CC1 [Example 157, 1-{1-[4-[4-(1-Piperazinyl)butoxy]benzoyl]-4-piperidinyl}-3,4-dihydrocarbostyril.dioxalate]
Second: CC1CCN(CCCCCOc2ccc(C(=O)N3CCC(N4C(=O)CCc5ccccc54)CC3)cc2)CC1 [Example 242, 1-{1-(4-[5-(4-Methyl-1-piperidinyl)pentyloxy]benzoyl)-4-piperidinyl}-3,4-dihydrocarbostyril]
The IC50 of the first is 1.5-fold higher: 90 nM for the first, 59 nM for the second.

Compared with `O=C(CC12CC3CC(CC(C3)C1)C2)N1CCC(N2C(=O)CCc3ccccc32)CC1` [Example 115], `CN(C)c1ccc(C(=O)N2CCC(N3C(=O)CCc4ccccc43)CC2)c(N(C)C)c1` [Example 50, 1-{1-[2,4-Bis(N,N-dimethylamino)benzoyl]-4-piperidinyl}-3,4-dihydrocarbostyril] is 1.8-fold lower in IC50: 700 nM for the first, 400 nM for the second.

Compared with `CCN(CC)CCCCCCCOc1ccc(C(=O)N2CCC(N3C(=O)CCc4ccccc43)CC2)cc1` [Example 268, 1-{1-(4-[7-(Diethylamino)heptyloxy]benzoyl)-4-piperidinyl}-3,4-dihydrocarbostyril], `CC(=O)OCCN(CCCCCOc1ccc(C(=O)N2CCC(N3C(=O)CCc4ccccc43)CC2)cc1)CCOC(C)=O` [Example 249, 1-{1-(4-[5-(N,N-Di(2-acetoxyethyl)amino)pentyloxy]benzoyl)-4-piperidinyl}-3,4-dihydrocarbostyril] is 1.7-fold higher in IC50: 27 nM for the first, 45 nM for the second.

First: NC(=O)C1CCN(C(=O)CCCCCOc2ccc(C(=O)N3CCC(N4C(=O)CCc5ccccc54)CC3)cc2)CC1 [Example 275, 1-{1-(4-[5-(4-Carbamoyl-1-piperidinylcarbonyl)pentyloxy]benzoyl)-4-piperidinyl}-3,4-dihydrocarbostyril]
Second: CC(=O)OCCCCc1ccc(C(=O)N2CCC(N3C(=O)CCc4ccccc43)CC2)cc1 [Example 124, 1-{1-[4-(4-Acetoxybutyl)benzoyl]-4-piperidinyl}-3,4-dihydrocarbostyril]
The IC50 of the first is 7-fold lower: 46 nM for the first, 320 nM for the second. The first is the more potent here.

`CCOc1ccc(C(=O)N2CCC(N3C(=O)CCc4c(F)cccc43)CC2)c(OC)c1` [Example 306, 5-Fluoro-1-[1-(2-methoxy-4-ethoxybenzoyl)-4-piperidinyl}-3,4-dihydrocarbostyril] and `CCOc1ccc(C(=O)N2CCC(N3C(=O)CCc4c(OC(C)=O)cccc43)CC2)c(OC)c1` [Example 309, 5-Acetoxy-1-[1-(2-Methoxy-4-ethoxybenzoyl)-4-piperidinyl]-3,4-dihydrocarbostyril] are within 1.5-fold of each other in IC50: 84 nM for the first, 73 nM for the second.

First: CC(=O)N[C@H](Cc1c[nH]cn1)C(=O)NCCCOc1ccc(C(=O)N2CCC(N3C(=O)CCc4ccccc43)CC2)cc1 [Example 208, 1-{1-[4-(3-[2-(R)-Acetylamino-2-(4(1H)-imidazolyl)methylacetylamino]propoxy)benzoyl]-4-piperidinyl}-3,4-dihydrocarbostyril]
Second: COc1cccc(CNCC(O)CCCCOc2ccc(C(=O)N3CCC(N4C(=O)CCc5ccccc54)CC3)cc2)c1 (stereo not shown) [Example 298, 1-{1-(4-[5-Hydroxy-6-(3-methoxybenzylamino)hexyloxy]benzoyl)-4-piperidinyl}-3,4-dihydrocarbostyril]
The IC50 of the first is 1.5-fold higher: 100 nM for the first, 65 nM for the second. The second is the more potent here.

Going from `O=C(c1ccc(OCCCCCN2CCCC2)cc1OCCCCCN1CCCC1)N1CCC(N2C(=O)CCc3ccccc32)CC1` [Example 291] to `O=C(c1ccccc1)c1ccc(C(=O)N2CCC(N3C(=O)CCc4ccccc43)CC2)cc1` [Example 72, 1-[1-(4-Benzoylbenzoyl)-4-piperidinyl]-3,4-dihydrocarbostyril], the IC50 rises from 98 nM to 480 nM (4.9-fold).

Same assay, conditions: [H]3-Arg-vasopressin 2×10^-10 M, rat liver plasma membrane, 37° C., 10 minutes, pH 8.0; read-out: IC50

“1-{1-[4-(6-(1-Methyl-5-oxo-3-morpholino)hexyloxy)benzoyl]-4-piperidinyl}-3,4-dihydrocarbostyril [Example 215]” was tested, and the IC50 was 170 nM.

Same assay, conditions: read-out: IC50

With `CCOc1ccc(C(=O)N2CCC(n3c(=O)ccc4ccc(F)cc43)CC2)c(OC)c1` [Example 151, 1-[1-(2-Methoxy-4-ethoxybenzoyl)-4-piperidinyl]-7-fluorocarbostyril] the IC50 was 160 nM.
